Laboratory results taken from US4115587A, “Fatty acid amides of norfenfluramine and compositions and methods thereof” (A. H. Robins Company, Inc., priority 1976, dated 1978).

Experiments:
[1] = tested on: Serum Triglycerides and Cholesterol; test: Triton-induced hyperlipidemia test (Table 1); format: in vivo, male Sprague-Dawley rats; settings: 140 mg/kg p.o.; for % Change Cholesterol / % Change Triglycerides: vs control; for Serum Cholesterol / Serum Triglycerides: ± SD
Protocol: Fasted, male Sprague-Dawley rats weighing 250-350 g were fed ad libitum a commercial lab chow with free access to water. The animals were fasted overnight and administered Triton-WR-1339 (produced by Ruger Chemical Company, Inc., Irvington, New Jersey) as described by Schurr et al.; Lipids 7 68(1972) except the procedure was modified to use the saphenous vein and divided doses of 70 mg/kg. The rats were anesthetized with sodium pentobarbital and terminally bled by heart puncture. Serum was stored at -20° C. until it was analyzed for total cholesterol and triglycerides. Comparison was also made with clofibrate.

Serum and Liver Lipids = test: Linoleamide of norfenfluramine in rats fed a hypercholesteremic diet: serum and liver lipids (Table 6); format: in vivo; settings: 0.2% in food
Protocol: General feeding experiments were conducted on rats to determine the effect of the amides of this invention on serum and liver lipids of animals fed a basal diet and a basal diet supplemented with cholesterol. In addition, the effect of these drugs on serum lipoproteins was studied as well as their effect on body weight, gross feed efficiency, liver weight, appetite and energy utilization with respect to their metabolic size. Male, Sprague-Dawley rats weighing 150-175 g. were housed in cages with raised wire floors in a room kept at a temperature of 24°-26° C. with a 12-hour day and 12-hour night cycle, fed ad libitum a semipurified diet consisting by weight % composition: vitamin-free casein, 20; glucose, 63; hydrogenated coconut oil, 10; GBI Vitamin Fortification Mixture, Cat. #40060 obtained from General Biochemical Company of Chargrin Falls, Ohio, 1; modified salt mix of Williams and Briggs, Cat. #170911 obtained from General Biochemical Company, 4; and cellulose, 2; and watered. The modified salt mix provided the following amounts in grams of elements per Kg. of diet:
Diets were supplemented with 0.5% cholic acid, 1% cholesterol, and drug at the expense of glucose. The experimental period was 18-21 days with body weight and food measured at specified intervals. Animals were fasted overnight and terminally bled by cardiac puncture. Blood was anti-coagulated with ethylenediamine tetracetic acid and plasma was separated by centrifugation, and stored at -20° C. Livers were excised, weighed, and stored at -20° C. All samples remained at this temperature until they were analyzed for total lipids, total cholesterol, triglycerides and phospholipids. Gross feed efficiency together with the effect of metabolic size on food intake and the effect of drug on energy utilization were determined.
(a) ± values are standard deviation of 10 animals per group.
(b) Semi-purified diet supplemented with 1% cholesterol and 0.5% cholic
acid at expense of glucose.

Structure (SMILES)	% Change Cholesterol ([1]; Test Group IV)	% Change Triglycerides ([1]; Test Group IV)	Serum Cholesterol ([1]; Test Group IV)	Serum Triglycerides ([1]; Test Group IV)	% Change Triglycerides ([1]; Test Group I)	Serum Cholesterol ([1]; Test Group I)	Serum Triglycerides ([1]; Test Group I)	Liver Cholesterol (Serum and Liver Lipids; SD 0.73 (10 animals), p<.05)	Liver Triglycerides (Serum and Liver Lipids; SD 3.67 (10 animals), p<.05)	Serum Phospholipids (Serum and Liver Lipids; SD 18.4 (10 animals))	Serum Cholesterol (Serum and Liver Lipids; SD 30 (10 animals), p<.05)	Serum Triglycerides (Serum and Liver Lipids; SD 62 (10 animals), p<.05)	Liver Phospholipids (Serum and Liver Lipids; SD printed + 8.75 (10 animals))
CCCCCCCC/C=C\CCCCCCCC(=O)NC(C)Cc1cccc(C(F)(F)F)c1 (stereo not drawn) [Ex.2, N-[1-methyl-2-(3-trifluoromethylphenyl)ethyl]octadec-9-enamide cis isomer]	-39%	-73%	173.3 ± 10.2 mg/100 ml	166.3 ± 37.2 mg/100 ml	–	–	–	–	–	–	–	–	–
CCCCCCCC/C=C/CCCCCCCC(=O)NC(C)Cc1cccc(C(F)(F)F)c1 (stereo not drawn) [Ex.3, N-[1-methyl-2-(3-trifluoromethylphenyl)ethyl]octadec-9-enamide trans isomer]	-25%	-58%	210.0 ± 47.8 mg/100 ml	260.0 ± 137.8 mg/100 ml	–	–	–	–	–	–	–	–	–
CCCCCCCCCCCCCCCCCC(=O)NC(C)Cc1cccc(C(F)(F)F)c1 (stereo not drawn) [Ex.4, N-[1-methyl-2-(3-trifluoromethylphenyl)ethyl]octadecanamide]	-24%	-74%	214.3 ± 91.6 mg/100 ml	160.0 ± 110.0 mg/100 ml	–	–	–	–	–	–	–	–	–
CCCCC/C=C\C/C=C\CCCCCCCC(=O)NC(C)Cc1cccc(C(F)(F)F)c1 (stereo not drawn) [Ex. 1, N-[1-methyl-2-(3-trifluoromethylphenyl)ethyl]octadeca-9,12-dienamide(cis-cis)]	–	–	–	–	-54%	209.0 ± 16.4 mg/100 ml	268.7 ± 69.6 mg/100 ml	7.15 mg/g	5.59 mg/g	105.4 mg/100 ml	212 mg/100 ml	156 mg/100 ml	24.1 mg/g
